Source: patent US20040138301A1, “Chemical uncouplers for the treatment of obesity” (priority 2002, published 2004)
Read-outs that look alike come from different tables or passages of the source.

Tests used:
[1] = tested on: HEP-G2 cells; experiment: cells; details: for EC50 / Emax / EC (Emax): Homo sapiens; for EC50: HepG2, 3 h; for HEP-G2 Tox: human, 3 h
Outline: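 HEP-G2 cells were treated with compound for 3 h at 37 °C in MEM/0.5% BSA containing 10 μCi/ml D-(3-^3H(N))-glucose, then lysed with TCA; ^3H-water released via the respiratory chain was recovered by evaporation at 50 °C and counted. Values are corrected for non-specific and basal counts, expressed as % of maximal FCCP or DNP stimulation, and EC50 is from a variable-slope sigmoidal fit.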

[2] = tested on: FSK-4 cells; experiment: Assay (IV): Glucose utilisation in FSK-4 cells; assay type: cell-based; details: FSK-4 cells; for EC50: glucose utilisation, 24 hours incubation, read-out: FSK4 EC50; for Emax: maximal efficacy relative to FCCP, read-out: FSK4 Emax (% of FCCP)
Description: Assay (IV): Glucose Utilisation in FSK-4 Cells
The assay measures indirectly the activity of the respiratory chain in FSK-4 cells by using D-(6-^3H(N))-glucose. The ^3H-proton will first be released in the TCA cyclus and transported to the respiratory chain where it will be incorporated into water. The water is thereafter separated from the D-(6-^3H(N))-glucose by evaporation. Finally, the radioactivity in the water is determined using a Topcounter.
FSK-4 cells obtained from ATCC (Maryland, USA), are cultured in growth medium (McCoy's medium with the following addition 100 units/ml penicillin and streptomycin and 10% FCS (fetal calf serum)) at 37° C. and 5% CO2. All media are obtained by Gibco (Life Technologies, Maryland, USA) where not otherwise mentioned.
At day zero the cells are harvested using trypsin-EDTA and washed in assay medium (MEM medium with the following addition 1× non-essential amino acids (M7145, 2 mM glutamin, 100 units/ml pencillin and streptomycin, 0.0075% sodium bicarbonate, 1 mM sodium pyrovate and 2% horse serum) using centrifugation. The cells are plated into single StripPlates wells (Corning B.V.Life Sciences, The Netherlands) that are placed into 24-well plates (Corning B.V.Life Sciences, The Netherlands) with a concentration of 1,5×10^4 cells/100 μl assay medium/well. The cells are then incubated at 37° C. and 5% CO2 overnight.
The next day the compounds to be tested are diluted to different concentrations in DMSO (Sigma, Missouri, USA) to 100 times final concentration. They are then diluted to a final concentration in assay medium containing 10 μCi/ml D-(6-^3H(N))-glucose (PerkinElmer Life Sciences Inc., Boston, USA). The medium is removed from the cells and 200 μl of the compound dilutions are added in duplicates. The cells are then incubated for another 24 hours at 37° C. and 5% CO2. Finally the cells are lysed by adding 50 μl 10% TCA (tri-chloroacetatic acid). 300 μl of sterile water is then added to the 24-wells that surrounds the StripPlate wells. The plate is sealed with Top-seal-tape (Packard, PerkinElmer Life Sciences Inc., Boston, USA) and the plate is incubated in a heating cupboard at 50° C. to equilibrium the radioactive water formed in the respiratory chain into the water in the 24-well plate by evaporate. The plates incubate for 8 hours where the heating cupboard is turned off. The top seal is removed when the samples have reached room temperature. One ml scintillation liquid (Packard Microscient, PerkinElmer Life Sciences Inc., Boston, USA) is added to all the samples and the radioactivity is determined using a Topcounter (Packard, PerkinElmer Life Sciences Inc., Boston, USA). Non-specific activity is determined by evaporating 200 μl of the dilution medium containing the D-(6-^3H(N))-glucose into 300 μl sterile water, and total radioactivity is determined by counting 5 μl assay medium with 10 μCi/ml D-(6-^3H(N))-glucose.
All calculations are done using GraphPad Prism 3.0 (GraphPad software, Inc.) From concentration-response curves the half maximal concentration (EC50) and maximal efficacy (Emax) are calculated using equation 1.
Y=Bottom+(Top−Bottom)/(1+10^((LogEc50-X)*slope))
X is the logarithm of the molar concentration of the test compound.
Y is the degree of stimulation caused by the compound measured as percentage of the basal stimulation.
The calculated EC50 value is then used to determine the concentrations used in a study where the Hill slope is calculated.
From the double logarithmic plot of the increase in glucose utilisation and the compound concentration the Hill slope is calculated accordingly to equation 2.
It is presumed, that the maximal increase in the glucose utilisation (as measured in the FSK-4 glucose utilisation assay) is limited by the capacity of the metabolism.

[3] = read-out: HEP-G2 EC50, HEP-G2 cells, glucose utilisation, 3 hours incubation
[4] = HepG2, read-out: HEP-G2 Emax (% of FCCP), HEP-G2 cells, maximal stimulation relative to FCCP
[5] = HepG2, read-out: HEP-G2 Emax (μM), HEP-G2 cells, concentration at which Emax is achieved (CEmax)
[6] = HepG2, read-out: HEP-G2 Emax (% of FCCP)
[7] = HepG2, read-out: HEP-G2 Emax (μM)

| SMILES | EC50 [1, 3] [nM] | Emax [1, 4] [%] | EC (Emax) [1, 5] [µM] | HEP-G2 Tox [1] | EC50 [2] [nM] | Emax [2] [%] | EC50 ([1]; read-out: HEP-G2 EC50) [nM] | Emax [1, 6] [%] | EC (Emax) [1, 7] [µM] |
| --- | --- | --- | --- | --- | --- | --- | --- | --- | --- |
| Cc1c(Cl)cc(C(C)(C)C)c(O)c1C(=O)Nc1cc(C(F)(F)F)cc(C(F)(F)F)c1 [Example 47, N-(3,5-Bis-Trifluoromethyl-Phenyl)-3-Tert-Butyl-5-Chloro-2-Hydroxy-6-Methyl-Benzamide] | 700 | 75 | 10 | Tox 0.1 mM | 1000 | 90 |  |  |  |
| Cc1c(Cl)cc(C(C)(C)C)c(O)c1C(=O)Nc1cc(C(F)(F)F)ccc1F [Example 48, 3-Tert-Butyl-5-Chloro-N-(2-Fluoro-5-Trifluoromethyl-Phenyl)-2-Hydroxy-6-Methyl-Benzamide] | 3500 | 95 | 10 | 0.1 mM | 2800 | 85 |  |  |  |
| Cc1c(Cl)cc(C(C)(C)C)c(O)c1C(=O)Nc1ccc([N+](=O)[O-])c(C(F)(F)F)c1 [Example 49, 3-Tert-Butyl-5-Chloro-2-Hydroxy-6-Methyl-N-(4-Nitro-3-Trifluoromethyl-Phenyl)-Benzamide] | 950 | 105 | 3 |  | 300 | 95 |  |  |  |
| Cc1c(Br)cc(C(C)(C)C)c(O)c1C(=O)Nc1ccc(C#N)cc1Cl [Example 51, 3-Bromo-5-Tert-Butyl-N-(2-Chloro-4-Cyano-Phenyl)-6-Hydroxy-2-Methyl-Benzamide] | 400 | 100 | 3 |  | 300 | 105 |  |  |  |
| Cc1c(Br)cc(C(C)(C)C)c(O)c1C(=O)Nc1cc(C(F)(F)F)ccc1Cl [Example 52, 3-Bromo-5-Tert-Butyl-N-(2-Chloro-5-Trifluoromethyl-Phenyl)-6-Hydroxy-2-Methyl-Benzamide] | 2400 | 95 | 10 |  | 2500 | 75 |  |  |  |
| Cc1c(Br)cc(C(C)(C)C)c(O)c1C(=O)Nc1ccc(Cl)cc1Cl [Example 53, 3-Bromo-5-Tert-Butyl-N-(2,4-Dichloro-Phenyl)-6-Hydroxy-2-Methyl-Benzamide] | 4150 | 90 | 10 |  | 15000 | 95 |  |  |  |
| Cc1c(Br)cc(C(C)(C)C)c(O)c1C(=O)Nc1c(Cl)cc(Cl)cc1[N+](=O)[O-] [Example 54, 3-Bromo-5-Tert-Butyl-N-(2,4-Dichloro-6-Nitro-Phenyl)-6-Hydroxy-2-Methyl-Benzamide] | 520 | 90 | 3 |  | 300 | 80 |  |  |  |
| Cc1c(Br)cc(C(C)(C)C)c(O)c1C(=O)Nc1c(Cl)cc([N+](=O)[O-])cc1Cl [Example 55, 3-Bromo-5-Tert-Butyl-N-(2,6-Dichloro-4-Nitro-Phenyl)-6-Hydroxy-2-Methyl-Benzamide] | 360 | 99 | 1 |  | 300 | 100 |  |  |  |
| Cc1ccc(C(C)(C)C)c(O)c1C(=O)Nc1ccc([N+](=O)[O-])cc1C(F)(F)F [Example 59, 3-Tert-Butyl-2-Hydroxy-6-Methyl-N-(4-Nitro-2-Trifluoromethyl-Phenyl)-Benzamide] | 110 | 110 | 10 |  | 30 | 100 |  |  |  |
| Cc1c(Br)cc(C(C)(C)C)c(O)c1C(=O)Nc1cc(C(F)(F)F)cc(C(F)(F)F)c1Br [Example 60, 3-Bromo-N-(2-Bromo-3,5-Bis-Trifluoromethyl-Phenyl)-5-Tert-Butyl-6-Hydroxy-2-Methylbenzamide] | 70 | 90 | 0.3 |  | 300 | 105 |  |  |  |
| Cc1c(Br)cc(C(C)(C)C)c(O)c1C(=O)Nc1cc(C(F)(F)F)ccc1C(F)(F)F [Example 61, N-(2,5-Bis-Trifluoromethyl-Phenyl)-3-Bromo-5-Tert-Butyl-6-Hydroxy-2-Methyl-Benzamide] | 870 | 105 | 10 |  | 1100 | 105 |  |  |  |
| Cc1c(Br)cc(C(C)(C)C)c(O)c1C(=O)Nc1c(Cl)cc(Cl)cc1C(F)(F)F [Example 62, 3-Bromo-5-Tert-Butyl-N-(2,4-Dichloro-6-Trifluoromethyl-Phenyl)-6-Hydroxy-2-Methylbenzamide] | 2300 | 115 | 30 |  | 1200 | 85 |  |  |  |
| Cc1c(Br)cc(C(C)(C)C)c(O)c1C(=O)Nc1ccc(C(C)C)cc1C(F)(F)F [Example 63, 3-Bromo-5-Tert-Butyl-6-Hydroxy-N-(4-Isopropyl-2-Trifluoromethyl-Phenyl)-2-Methyl-Benzamide] | 14000 | 90 | 100 |  | 19000 | 55 |  |  |  |
| CCOC(=O)/C(=C/c1cc(C(C)(C)C)c(O)c(C(C)(C)C)c1)C(C)=O [Example 69, 2-Acetyl-3-(3,5-Di-Tert-Butyl-4-Hydroxy-Phenyl)-Acrylic Acid Ethyl Ester] | 100000 | 58 | 300 | Tox 1 mM | 9000 | 40 |  |  |  |
| CC(C)(C)c1cc([N+](=O)[O-])cc([N+](=O)[O-])c1O [Example 73, 2-Tert-Butyl-4,6-Dinitro-Phenol] |  |  |  |  | 7000 | 100 | 7300 | 70 | 300 |
| CC(C)(C)c1cc(/C=C(\C#N)c2ccccn2)cc(C(C)(C)C)c1O [Example 74, 3-(3,5-Di-Tert-Butyl-4-Hydroxy-Phenyl)-2-Pyridin-2-Yl-Acrylonitrile] | 16000 | 80 | 100 |  | 15000 | 120 |  |  |  |
| CCOP(=O)(OCC)/C(C#N)=C\c1cc(C(C)(C)C)c(O)c(C(C)(C)C)c1 [Example 76, 3-(3,5-Di-Tertbutyl-4-Hydroxybenzylidene)-2-(Diethylphosphonate)-Propenenitrile] |  |  |  |  | 3200 | 150 | 11000 | 90 | 30 |
| CC(C)(C)c1cc(/C=C(\C#N)c2ccc(OC(F)(F)F)cc2)cc(C(C)(C)C)c1O [Example 80, 3-(3,5-Di-Tert-Butyl-4-Hydroxy-Phenyl)-2-(4-Trifluoromethoxy-Phenyl)-Acrylonitrile] | 8000 | 80 | 100 | Tox 0.3 mM | 18000 | 100 |  |  |  |
| CC(C)(C)c1cc(/C=C(\C#N)c2ccc(C(F)(F)F)cc2)cc(C(C)(C)C)c1O [Example 81, 3-(3,5-Di-Tert-Butyl-4-Hydroxy-Phenyl)-2-(4-Trifluoromethyl-Phenyl)-Acrylonitrile] |  |  |  |  | 7000 | 140 | 7000 | 130 | 100 |
